This note sets out measurements from patent US9656963B2 (BRISTOL-MYERS SQUIBB COMPANY, priority 2012, dated 2017).

SMILES strings stand for the structures.

As a reminder, the EC50 is the concentration needed to bring the measured effect to its halfway point.

T1 sequence (O14842 whole entry): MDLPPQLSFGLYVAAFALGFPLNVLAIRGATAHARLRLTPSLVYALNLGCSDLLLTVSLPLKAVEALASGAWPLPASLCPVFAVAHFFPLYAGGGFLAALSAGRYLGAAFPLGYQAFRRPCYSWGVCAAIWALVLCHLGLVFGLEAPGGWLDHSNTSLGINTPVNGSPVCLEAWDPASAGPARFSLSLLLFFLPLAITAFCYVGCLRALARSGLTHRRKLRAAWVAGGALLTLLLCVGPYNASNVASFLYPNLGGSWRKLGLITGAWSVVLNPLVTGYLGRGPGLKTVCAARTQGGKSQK

This test concerns the target T1, hGPR40 (Homo sapiens, UniProt O14842).
T1 construct: 3x FLAG; expressed in transfected cells
As to the kind of experiment: FDSS-Based Intracellular Calcium Assay. The format is cell-based. Conditions: cells expressing GPR40, intracellular Ca2+ response. How it is done:
FDSS-Based Intracellular Calcium Assay
Cell lines expressing GPR40 are generated using the pDEST 3× flag gene expression system and are cultured in culture medium comprising the following components: F12 (Gibco #11765), 10% lipid deprived fetal bovine serum, 250 μg/ml zeocin and 500 μg/ml G418. To conduct the fluorescent imaging plate reader (FLIPR)-based calcium flux assay to measure intracellular Ca^2+ response, cells expressing GPR40 are plated on 384 well plates (BD Biocoat #356697) at a density of 20,000 cells/20 μL medium per well in phenol red and serum-free DMEM (Gibco #21063-029) and incubated overnight. […] Compounds are dissolved in DMSO and diluted to desired concentrations with assay buffer and added to the cells as 3x solution (20 μL per well). Run fluorescence/luminescence reader FDSS (Hamamatsu) to read intracellular Ca^2+ response.
A general note: A change in cytosolic calcium serves as a functional read-out for many receptors and channels.
As for `O=C(O)CC1CC(C(F)(F)F)=NN1c1ccc(OCc2ccccc2)cc1` (racemic) [Example 1, 2-(1-(4-(benzyloxy)phenyl)-3-(trifluoromethyl)-4,5-dihydro-1H-pyrazol-5-yl)acetic acid], the EC50 worked out at 1960 nM. Next, `O=C(O)CC1CC(C(F)(F)F)=NN1c1ccc(OCc2ccc(Cl)cc2Cl)cc1` (racemic) [Example 2, 2-(1-(4-(2,4-dichlorobenzyloxy)phenyl)-3-(trifluoromethyl)-4,5-dihydro-1H-pyrazol-5-yl)acetic acid]: 800 nM. In the case of `N#CC1=NN(c2ccc(Oc3cccc(Cl)c3)cc2)C(CC(=O)O)C1` (racemic) [Example 4, 2-(1-(4-(3-chlorophenoxy)phenyl)-3-cyano-4,5-dihydro-1H-pyrazol-5-yl)acetic acid], the EC50 was 220 nM. With `Cc1ccccc1Oc1ccc(N2N=C(S(C)(=O)=O)CC2CC(=O)O)cc1` (racemic) [Example 5, 2-(3-(methylsulfonyl)-1-(4-(o-tolyloxy)phenyl)-4,5-dihydro-1H-pyrazol-5-yl)acetic acid], the EC50 was 1650 nM. As for `Cc1ccccc1Oc1ccc(N2N=C(C(=O)N(C)C)CC2CC(=O)O)cc1` (racemic) [Example 6, 2-(3-(dimethylcarbamoyl)-1-(4-(o-tolyloxy)phenyl)-4,5-dihydro-1H-pyrazol-5-yl)acetic acid], the EC50 is 1810 nM. As for `Cc1ccccc1Oc1ccc(N2N=C(c3nnnn3C)CC2CC(=O)O)cc1` (racemic) [Example 7, 2-(3-(1-methyl-1H-tetrazol-5-yl)-1-(4-(o-tolyloxy)phenyl)-4,5-dihydro-1H-pyrazol-5-yl)acetic acid], the EC50 was 3200 nM.

Regarding `Cc1cc(Br)c(F)cc1Oc1ccc(N2N=C(C(F)(F)F)CC2CC(=O)O)cc1` (racemic) [Example 10, 2-(1-(4-(4-bromo-5-fluoro-2-methylphenoxy)phenyl)-3-(trifluoromethyl)-4,5-dihydro-1H-pyrazol-5-yl)acetic acid], the EC50 was found to be 230 nM. In the case of `COc1ccc(F)c(-c2cc(C)c(Oc3ccc(N4N=C(C(F)(F)F)CC4CC(=O)O)cc3)cc2F)c1` (racemic) [Example 12, 2-(1-(4-(2,2′-difluoro-5′-methoxy-5-methylbiphenyl-4-yloxy)phenyl)-3-(trifluoromethyl)-4,5-dihydro-1H-pyrazol-5-yl)acetic acid], the EC50 was found to be 510 nM.

As to `Cc1cc(Br)ccc1Oc1ccc(N2N=C(C(F)(F)F)CC2CC(=O)O)cc1` (racemic) [Example 13, 2-(1-(4-(4-bromo-2-methylphenoxy)phenyl)-3-(trifluoromethyl)-4,5-dihydro-1H-pyrazol-5-yl)acetic acid], the EC50 was 160 nM. On to `Cc1cc(Cc2ccc(N3N=C(C(F)(F)F)CC3CC(=O)O)cc2)ccc1Br` (racemic) [Example 18, 2-(1-(4-(4-bromo-3-methylbenzyl)phenyl)-3-(trifluoromethyl)-4,5-dihydro-1H-pyrazol-5-yl)acetic acid], for which the EC50 was 455 nM. Take `COc1ccc(Cl)c(-c2ccc(Cc3ccc(N4N=C(C(F)(F)F)CC4CC(=O)O)cc3)cc2C)c1` (racemic) [Example 23, 2-(1-(4-((2′-chloro-5′-methoxy-2-methylbiphenyl-4-yl)methyl)phenyl)-3-(trifluoromethyl)-4,5-dihydro-1H-pyrazol-5-yl)acetic acid]: the EC50 was 350 nM. Take `Cc1cc(Cc2ccc(N3N=C(C(F)(F)F)CC3CC(=O)O)cc2)ccc1-c1cc(C(F)(F)F)ccc1F` (racemic) [Example 24, 2-(1-(4-((2′-fluoro-2-methyl-5′-(trifluoromethyl)biphenyl-4-yl)methyl)phenyl)-3-(trifluoromethyl)-4,5-dihydro-1H-pyrazol-5-yl)acetic acid]: the EC50 worked out at 570 nM. For the compound `Cc1cc(Cc2ccc(N3N=C(C(F)(F)F)CC3CC(=O)O)cc2)ccc1-c1cc(OC(F)(F)F)ccc1Cl` (racemic) [Example 25, 2-(1-(4-((2′-chloro-2-methyl-5′-(trifluoromethoxy)biphenyl-4-yl)methyl)phenyl)-3-(trifluoromethyl)-4,5-dihydro-1H-pyrazol-5-yl)acetic acid], the EC50 came to 280 nM. For the compound `CC(C)c1ccccc1Oc1ccc(N2N=C(C#N)CC2CC(=O)O)cc1` (racemic) [Example 29, 2-(3-cyano-1-(4-(2-isopropylphenoxy)phenyl)-4,5-dihydro-1H-pyrazol-5-yl)acetic acid], the EC50 is 430 nM. As for `N#CC1=NN(c2ccc(Oc3ccccc3Br)cc2)C(CC(=O)O)C1` (racemic) [Example 30, 2-(1-(4-(2-bromophenoxy)phenyl)-3-cyano-4,5-dihydro-1H-pyrazol-5-yl)acetic acid], the EC50 was 180 nM.

As to `Cc1cc(Oc2ccc(N3N=C(C#N)CC3CC(=O)O)cc2)c(C)cc1Br` (racemic) [Example 31, 2-(1-(4-(4-bromo-2,5-dimethylphenoxy)phenyl)-3-cyano-4,5-dihydro-1H-pyrazol-5-yl)acetic acid], the EC50 came out at 360 nM. For `COc1ccc(F)c(-c2ccc(Oc3ccc(N4N=C(C#N)CC4CC(=O)O)cc3)c(C)c2)c1` (racemic) [Example 32, 2-(3-cyano-1-(4-(2′-fluoro-5′-methoxy-3-methylbiphenyl-4-yloxy)phenyl)-4,5-dihydro-1H-pyrazol-5-yl)acetic acid], the EC50 stood at 190 nM. As to `N#CC1=NN(c2ccc(OCc3ccc(Cl)cc3Cl)cc2)C(CC(=O)O)C1` (racemic) [Example 33, 2-(3-cyano-1-(4-(2,4-dichlorobenzyloxy)phenyl)-4,5-dihydro-1H-pyrazol-5-yl)acetic acid], the EC50 was 300 nM. With `COc1ccc(F)c(-c2cc(C)c(Oc3ccc(N4N=C(C#N)CC4CC(=O)O)cc3)cc2C)c1` (racemic) [Example 35, 2-(3-cyano-1-(4-(2′-fluoro-5′-methoxy-2,5-dimethylbiphenyl-4-yloxy)phenyl)-4,5-dihydro-1H-pyrazol-5-yl)acetic acid], the EC50 worked out at 180 nM. Consider `COc1cccc(-c2cc(C)c(Oc3ccc(N4N=C(C#N)CC4CC(=O)O)cc3)cc2C)c1` (racemic) [Example 36, 2-(3-cyano-1-(4-(3′-methoxy-2,5-dimethylbiphenyl-4-yloxy)phenyl)-4,5-dihydro-1H-pyrazol-5-yl)acetic acid], for which the 50% effective concentration (EC50) is 590 nM. Next, `COc1ccc(Cc2ccc(N3N=C(C#N)CC3CC(=O)O)cc2)c(C)c1` (racemic) [Example 37, 2-(3-cyano-1-(4-(4-methoxy-2-methylbenzyl)phenyl)-4,5-dihydro-1H-pyrazol-5-yl)acetic acid]: 150 nM; `COc1cccc(-c2ccc(Cc3ccc(N4N=C(C#N)CC4CC(=O)O)cc3)c(C)c2)c1` (racemic) [Example 38, 2-(3-cyano-1-(4-((3′-methoxy-3-methylbiphenyl-4-yl)methyl)phenyl)-4,5-dihydro-1H-pyrazol-5-yl)acetic acid]: 190 nM; `Cc1cc(-c2cc(C#N)ccc2F)ccc1Cc1ccc(N2N=C(C#N)CC2CC(=O)O)cc1` (racemic) [Example 39, 2-(3-cyano-1-(4-((5′-cyano-2′-fluoro-3-methylbiphenyl-4-yl)methyl)phenyl)-4,5-dihydro-1H-pyrazol-5-yl)acetic acid]: 200 nM. As to `COc1ccc(Cl)c(-c2ccc(Cc3ccc(N4N=C(C#N)CC4CC(=O)O)cc3)c(C)c2)c1` (racemic) [Example 40, 2-(1-(4-((2′-chloro-5′-methoxy-3-methylbiphenyl-4-yl)methyl)phenyl)-3-cyano-4,5-dihydro-1H-pyrazol-5-yl)acetic acid], the EC50 amounted to 120 nM. Regarding `Cc1ccccc1Oc1ccc(N2N=C(C#N)CC2CC(=O)O)cc1` (single isomer, unassigned) [Example 3, Isomer 1, 2-(3-cyano-1-(4-(o-tolyloxy)phenyl)-4,5-dihydro-1H-pyrazol-5-yl)acetic acid], the EC50 is 37 nM. Take `Cc1ccccc1Oc1ccc(N2N=C(C#N)CC2CC(=O)O)cc1` (single isomer, unassigned) [Example 3, Isomer 2, 2-(3-cyano-1-(4-(o-tolyloxy)phenyl)-4,5-dihydro-1H-pyrazol-5-yl)acetic acid]: the EC50 is 560 nM. As for `COc1ccc(F)c(-c2ccc(Oc3ccc(N4N=C(c5ncco5)CC4CC(=O)O)cc3)c(C)c2)c1` (single isomer, unassigned) [Example 8, Isomer 1, 2-(1-(4-(2′-fluoro-5′-methoxy-3-methylbiphenyl-4-yloxy)phenyl)-3-(oxazol-2-yl)-4,5-dihydro-1H-pyrazol-5-yl)acetic acid], the EC50 stood at 910 nM. The result for `COc1ccc(F)c(-c2ccc(Oc3ccc(N4N=C(c5ncco5)CC4CC(=O)O)cc3)c(C)c2)c1` (single isomer, unassigned) [Example 8, Isomer 2, 2-(1-(4-(2′-fluoro-5′-methoxy-3-methylbiphenyl-4-yloxy)phenyl)-3-(oxazol-2-yl)-4,5-dihydro-1H-pyrazol-5-yl)acetic acid] reads 1160 nM; that for `COc1cccc(-c2ccc(Oc3ccc(N4N=C(C(F)(F)F)CC4CC(=O)O)cc3)c(C)c2)c1` (single isomer, unassigned) [Example 9, Isomer 1, 2-(1-(4-(3′-methoxy-3-methylbiphenyl-4-yloxy)phenyl)-3-(trifluoromethyl)-4,5-dihydro-1H-pyrazol-5-yl)acetic acid], 190 nM; that for `COc1cccc(-c2ccc(Oc3ccc(N4N=C(C(F)(F)F)CC4CC(=O)O)cc3)c(C)c2)c1` (single isomer, unassigned) [Example 9, Isomer 2, 2-(1-(4-(3′-methoxy-3-methylbiphenyl-4-yloxy)phenyl)-3-(trifluoromethyl)-4,5-dihydro-1H-pyrazol-5-yl)acetic acid], 290 nM.
